Like-named read-outs stand apart in the source and are kept apart here.
Legend:
[1] = target: T1, ACE (Angiotensin I converting enzyme) (Sus scrofa, UniProt F1RRW5); test: Inhibition of ACE (Hip-His-Leu substrate, O-phthal aldehyde fluorescence); format: biochemical, pig
T1 construct: the ACE obtained from renal cortex of pig; from tissue; host or cells: renal cortex of pig
T1 sequence (F1RRW5 34-1309): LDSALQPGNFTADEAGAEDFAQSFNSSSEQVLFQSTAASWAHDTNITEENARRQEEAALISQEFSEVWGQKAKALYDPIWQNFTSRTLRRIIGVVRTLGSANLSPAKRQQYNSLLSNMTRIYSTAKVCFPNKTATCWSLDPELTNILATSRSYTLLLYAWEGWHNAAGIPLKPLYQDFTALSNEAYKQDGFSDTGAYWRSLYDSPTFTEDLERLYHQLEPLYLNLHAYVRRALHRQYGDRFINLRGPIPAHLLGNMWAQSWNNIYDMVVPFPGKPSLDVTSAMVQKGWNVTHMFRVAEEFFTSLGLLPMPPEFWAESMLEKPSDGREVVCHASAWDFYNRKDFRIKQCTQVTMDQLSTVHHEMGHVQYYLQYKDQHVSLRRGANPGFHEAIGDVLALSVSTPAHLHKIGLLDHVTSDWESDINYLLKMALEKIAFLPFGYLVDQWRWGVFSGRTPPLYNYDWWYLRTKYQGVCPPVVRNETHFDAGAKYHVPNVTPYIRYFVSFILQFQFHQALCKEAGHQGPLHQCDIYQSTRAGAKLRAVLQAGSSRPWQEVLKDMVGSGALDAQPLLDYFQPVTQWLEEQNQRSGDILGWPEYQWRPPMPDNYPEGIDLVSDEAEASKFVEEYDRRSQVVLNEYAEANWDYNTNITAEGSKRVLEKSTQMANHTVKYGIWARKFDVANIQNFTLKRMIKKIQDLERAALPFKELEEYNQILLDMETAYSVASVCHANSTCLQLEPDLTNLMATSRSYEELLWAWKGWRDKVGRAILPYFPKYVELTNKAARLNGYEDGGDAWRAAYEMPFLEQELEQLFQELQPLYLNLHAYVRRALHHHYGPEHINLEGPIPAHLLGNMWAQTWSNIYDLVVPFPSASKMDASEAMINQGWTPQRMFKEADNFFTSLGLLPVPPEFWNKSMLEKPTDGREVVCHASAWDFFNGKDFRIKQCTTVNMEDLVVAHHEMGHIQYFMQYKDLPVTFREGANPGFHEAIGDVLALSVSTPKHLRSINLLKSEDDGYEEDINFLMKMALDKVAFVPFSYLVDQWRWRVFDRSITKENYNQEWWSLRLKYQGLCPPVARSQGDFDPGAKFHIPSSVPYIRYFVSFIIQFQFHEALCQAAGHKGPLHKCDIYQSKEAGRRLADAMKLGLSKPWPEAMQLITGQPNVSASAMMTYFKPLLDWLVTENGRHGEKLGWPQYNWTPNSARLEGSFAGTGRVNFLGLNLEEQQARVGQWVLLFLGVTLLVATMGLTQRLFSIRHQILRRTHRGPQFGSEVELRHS
Source text: The activity of ACE inhibition was expressed by the equation
in which S was the intensity of the fluorescence in the above described procedure with the sample solution, A was the value of the blank test by replacing the sample solution with the same volume of water and B was the value obtained by replacing the enzyme solution with the same volume of pure water.

carboxypeptidase A = target: T2, carboxypeptidase A (Bos taurus, UniProt P00730); test: Inhibition of carboxypeptidase A; format: biochemical
T2 sequence (P00730 111-419): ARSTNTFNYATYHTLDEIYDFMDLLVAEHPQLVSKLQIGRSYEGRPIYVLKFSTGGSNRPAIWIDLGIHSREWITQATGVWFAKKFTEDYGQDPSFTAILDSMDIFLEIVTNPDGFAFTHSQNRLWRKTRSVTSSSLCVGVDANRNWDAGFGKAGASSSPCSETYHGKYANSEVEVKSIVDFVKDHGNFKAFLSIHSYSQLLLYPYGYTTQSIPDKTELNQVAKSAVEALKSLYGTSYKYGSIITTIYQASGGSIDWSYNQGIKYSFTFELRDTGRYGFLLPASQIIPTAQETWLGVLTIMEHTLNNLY

[2] = Acute oral toxicity in mice (LD50); settings: mouse, in vivo, male ICR mice, 8 weeks old, read-out: LD50 of one week
[3] = test system: Spontaneously Hypertensive Rats; test: Systolic blood pressure of SHR fed epigallocatechin gallate in the diet (FIG. 4); format: in vivo; settings: 8 weeks old, 0.5% in diet, after seven weeks feeding, control continued to rise
Source text: Three SHR (Spontaneously Hypertensive Rats) of 8 weeks old were fed on the diet which consisted of 99.5% of normal diet and 0.5% of epigallocatechin gallate mixed together. As a control two SHR of the same stock were fed on a 100% normal diet. After seven weeks feeding the blood pressure of tea polyphenol fed group levelled off while the blood pressure of the control group continued to rise. In FIG. 4, the curve A denotes the systolic blood pressure of control group while B denotes the systolic blood pressure of test group.

[4] = ACE from renal cortex of pig, Hip-His-Leu substrate, 37° C.

Row | Structure (SMILES) | IC50 [1, 4] | IC50 (carboxypeptidase A) | IC50 [1] | LD50 at 168 h [2] | blood pressure (in words) [3]
1 | O=c1c(O)cc([C@H]2Oc3cc(O)cc(O)c3C[C@H]2O)cc2c([C@H]3Oc4cc(O)cc(O)c4C[C@H]3O)cc(O)c(O)c12 [Free theaflavin, free theaflavin] | 400 µM | > 5000 µM |  |  | 
2 | O=C(O[C@@H]1Cc2c(O)cc(O)cc2O[C@@H]1c1cc(O)c(O)c(O)c1)c1cc(O)c(O)c(O)c1 [(-)-Epigallocatechin gallate, (-)-epigallocatechin gallate] |  | 3000 µM | 90 µM | 2310 mg/kg | levelled off
3 | O=C(O[C@@H]1Cc2c(O)cc(O)cc2O[C@@H]1c1cc(O)c(O)c2c(=O)c(O)cc([C@H]3Oc4cc(O)cc(O)c4C[C@H]3O)cc12)c1cc(O)c(O)c(O)c1 [Theaflavin monogallate B, theaflavin monogallate B] | 110 µM | > 5000 µM |  |  | 
4 | O=C(O[C@@H]1Cc2c(O)cc(O)cc2O[C@@H]1c1cc(O)c(=O)c2c(O)c(O)cc([C@H]3Oc4cc(O)cc(O)c4C[C@H]3O)c2c1)c1cc(O)c(O)c(O)c1 [Theaflavin monogallate A, theaflavin monogallate A] | 115 µM | > 5000 µM |  |  | 

— patent US4840966A, “Method of treating hypertension” (Mitsui Norin Co., Ltd., priority 1987, dated 1989)
